Measurements from US8435978B2, “Substituted sulfonamide compounds” (Gruenenthal GmbH, priority 2006, dated 2013).

Experiments:
human B1R receptor = target: T1, human B1R receptor (Homo sapiens, UniProt P46663); assay: Functional study on the bradykinin receptor 1 (B1R), FLIPR Ca2+ assay, hB1R cells; assay type: cell-based; settings: CHO-K1, test substance 10 μM, agonist Lys-Des-Arg9-bradykinin 0.5 nM, % inhibition compared with the maximum achievable inhibition, read-out: B1R Antagonism, human [10 μM] % Inhibition
T1 construct: host or cells: CHO K1 cells (Chinese hamster ovary), stably transfected
T1 sequence (P46663 1-353): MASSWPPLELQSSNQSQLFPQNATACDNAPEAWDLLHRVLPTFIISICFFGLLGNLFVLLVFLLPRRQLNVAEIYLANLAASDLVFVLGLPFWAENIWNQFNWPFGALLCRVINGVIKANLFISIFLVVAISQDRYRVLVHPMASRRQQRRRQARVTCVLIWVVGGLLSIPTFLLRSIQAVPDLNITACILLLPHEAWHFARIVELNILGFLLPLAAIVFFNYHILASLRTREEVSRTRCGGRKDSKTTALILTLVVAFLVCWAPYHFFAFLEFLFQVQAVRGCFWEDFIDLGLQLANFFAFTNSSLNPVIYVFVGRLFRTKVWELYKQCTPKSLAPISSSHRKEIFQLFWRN
Outline: (§1)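 Cells were dye-loaded 60 min at 37 °C, equilibrated 20 min at room temperature, then given 10 μM compound. Ten minutes later the species-matched agonist was added (0.5 nM Lys-Des-Arg9-bradykinin, human; 100 nM Des-Arg9-bradykinin, rat) and Ca2+ influx suppression expressed as % of maximum inhibition.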

B1R receptor of the rat = target: T2, B1R receptor of the rat (Rattus norvegicus, UniProt P97583); assay: Functional study on the bradykinin receptor 1 (B1R), FLIPR Ca2+ assay, rB1R cells; assay type: cell-based; settings: CHO-K1, test substance 10 μM, agonist Des-Arg9-bradykinin 100 nM, % inhibition compared with the maximum achievable inhibition, read-out: B1R Antagonism, rat [10 μM] % Inhibition
T2 construct: host or cells: CHO K1 cells (Chinese hamster ovary), stably transfected
T2 sequence (P97583 1-337): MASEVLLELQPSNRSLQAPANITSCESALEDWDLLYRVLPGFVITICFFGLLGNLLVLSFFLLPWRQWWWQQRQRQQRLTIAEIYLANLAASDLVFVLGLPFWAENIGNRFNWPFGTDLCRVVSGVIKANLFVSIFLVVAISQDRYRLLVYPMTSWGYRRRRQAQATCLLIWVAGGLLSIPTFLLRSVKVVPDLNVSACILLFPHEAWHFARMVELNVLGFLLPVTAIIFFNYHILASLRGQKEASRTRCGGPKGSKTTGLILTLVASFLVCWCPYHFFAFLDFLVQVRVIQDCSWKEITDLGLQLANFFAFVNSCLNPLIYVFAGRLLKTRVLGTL
Outline: as §1

| Compound | inhibition at 10 µM (human B1R receptor) | inhibition at 10 µM (B1R receptor of the rat) |
| --- | --- | --- |
| COc1cc(C)c(S(=O)(=O)N2CCCC2COCC(=O)N2CCC(c3cccnc3)C2)c(C)c1 (stereo not drawn) [Example 272, 2-((1-(4-methoxy-2,6-dimethylphenylsulfonyl)pyrrolidin-2-yl)methoxy)-1-(3-(pyridin-3-yl)pyrrolidin-1-yl)ethanone] | 97.1% | 84.6% |
| COc1cc(C)c(S(=O)(=O)N2CCCC2COCC(=O)N2CCC(c3ccncc3)C2)c(C)c1 (stereo not drawn) [Example 273, 2-((1-(4-methoxy-2,6-dimethylphenylsulfonyl)pyrrolidin-2-yl)methoxy)-1-(3-(pyridin-4-yl)pyrrolidin-1-yl)ethanone] | 96% | 84.9% |
| COc1cc(C)c(S(=O)(=O)N2CCCC2COCC(=O)N2CCN(c3ccncc3)CC2)c(C)c1 (stereo not drawn) [Example 274, 2-((1-(4-methoxy-2,6-dimethylphenylsulfonyl)pyrrolidin-2-yl)methoxy)-1-(4-(pyridin-4-yl)piperazin-1-yl)ethanone] | 104% | 98.1% |
| COc1cc(C)c(S(=O)(=O)N2Cc3ccccc3CC2COCC(=O)N2CCC(N3CCN(C)CC3)CC2)c(C)c1C (stereo not drawn) [Example 275, 2-((2-(4-methoxy-2,3,6-trimethylphenylsulfonyl)-1,2,3,4-tetrahydroisoquinolin-3-yl)methoxy)-1-(4-(4-methylpiperazin-1-yl)piperidin-1-yl)ethanone] | 102% | 93.1% |
| COc1cc(C)c(S(=O)(=O)N2Cc3ccccc3CC2COCC(=O)N2CCC(CCN3CCCCC3)CC2)c(C)c1C (stereo not drawn) [Example 276, 2-((2-(4-methoxy-2,3,6-trimethylphenylsulfonyl)-1,2,3,4-tetrahydroisoquinolin-3-yl)methoxy)-1-(4-(2-(piperidin-1-yl)ethyl)piperidin-1-yl)ethanone] | 98.9% | 94.2% |
| COc1cc(C)c(S(=O)(=O)N2Cc3ccccc3CC2COCC(=O)N2CCCCC2Cc2cccc(C)n2)c(C)c1C (stereo not drawn) [Example 277, 2-((2-(4-methoxy-2,3,6-trimethylphenylsulfonyl)-1,2,3,4-tetrahydroisoquinolin-3-yl)methoxy)-1-(2-((6-methylpyridin-2-yl)methyl)piperidin-1-yl)ethanone] | 85.5% | 81.6% |
| CN1CCN(C2CCN(C(=O)COCC3CCCCN3S(=O)(=O)c3c(Cl)cccc3Cl)CC2)CC1 (stereo not drawn) [Example 278, 2-((1-(2,6-dichlorophenylsulfonyl)piperidin-2-yl)methoxy)-1-(4-(4-methylpiperazin-1-yl)piperidin-1-yl)ethanone] | 104% | 96.9% |
| O=C(COCC1CCCCN1S(=O)(=O)c1c(Cl)cccc1Cl)N1CCC(CCN2CCCCC2)CC1 (stereo not drawn) [Example 279, 2-((1-(2,6-dichlorophenylsulfonyl)piperidin-2-yl)methoxy)-1-(4-(2-(piperidin-1-yl)ethyl)piperidin-1-yl)ethanone] | 104% | 95.4% |
| Cc1ccc(C)n1CCN1CCN(C(=O)COCC2CCCCN2S(=O)(=O)c2c(Cl)cccc2Cl)CC1 (stereo not drawn) [Example 280, 2-((1-(2,6-dichlorophenylsulfonyl)piperidin-2-yl)methoxy)-1-(4-(2-(2,5-dimethyl-1H-pyrrol-1-yl)ethyl)piperazin-1-yl)ethanone] | 104% | 92% |
| CC(C)N(CCN1CCN(C(=O)COCC2CCCCN2S(=O)(=O)c2c(Cl)cccc2Cl)CC1)C(C)C (stereo not drawn) [Example 281, 2-((1-(2,6-dichlorophenylsulfonyl)piperidin-2-yl)methoxy)-1-(4-(2-(diisopropylamino)ethyl)piperazin-1-yl)ethanone] | 104% | 92.4% |
| O=C(COCC1CCCCN1S(=O)(=O)c1c(Cl)cccc1Cl)N1CCC(c2ccncc2)C1 (stereo not drawn) [Example 282, 2-((1-(2,6-dichlorophenylsulfonyl)piperidin-2-yl)methoxy)-1-(3-(pyridin-4-yl)pyrrolidin-1-yl)ethanone] | 103% | 86% |
| O=C(COCC1CCCCN1S(=O)(=O)c1c(Cl)cccc1Cl)N1CCN(c2ccncc2)CC1 (stereo not drawn) [Example 283, 2-((1-(2,6-dichlorophenylsulfonyl)piperidin-2-yl)methoxy)-1-(4-(pyridin-4-yl)piperazin-1-yl)ethanone] | 103% | 92.9% |
| Cc1cccc(CC2CCCCN2C(=O)COCC2CCCCN2S(=O)(=O)c2c(Cl)cccc2Cl)n1 (stereo not drawn) [Example 284, 2-((1-(2,6-dichlorophenylsulfonyl)piperidin-2-yl)methoxy)-1-(2-((6-methylpyridin-2-yl)methyl)piperidin-1-yl)ethanone] | 103% | 93.5% |
| CN1CCN(C2CCN(C(=O)COCC3CCCN3S(=O)(=O)c3c(Cl)cccc3Cl)CC2)CC1 (stereo not drawn) [Example 285, 2-((1-(2,6-dichlorophenylsulfonyl)pyrrolidin-2-yl)methoxy)-1-(4-(4-methylpiperazin-1-yl)piperidin-1-yl)ethanone] | 104% | 91% |
| O=C(COCC1CCCN1S(=O)(=O)c1c(Cl)cccc1Cl)N1CCC(CCN2CCCCC2)CC1 (stereo not drawn) [Example 286, 2-((1-(2,6-dichlorophenylsulfonyl)pyrrolidin-2-yl)methoxy)-1-(4-(2-(piperidin-1-yl)ethyl)piperidin-1-yl)ethanone] | 104% | 97.9% |
| Cc1ccc(C)n1CCN1CCN(C(=O)COCC2CCCN2S(=O)(=O)c2c(Cl)cccc2Cl)CC1 (stereo not drawn) [Example 287, 2-((1-(2,6-dichlorophenylsulfonyl)pyrrolidin-2-yl)methoxy)-1-(4-(2-(2,5-dimethyl-1H-pyrrol-1-yl)ethyl)piperazin-1-yl)ethanone] | 101% | 89.2% |
| COc1cccc(N2CCN(C(=O)COCC3CCCCN3S(=O)(=O)c3c(C)cc(OC)cc3C)CC2)c1 (stereo not drawn) [Example 288, 2-((1-(4-methoxy-2,6-dimethylphenylsulfonyl)piperidin-2-yl)methoxy)-1-(4-(3-methoxyphenyl)piperazin-1-yl)ethanone] | 102% | 93.3% |
| COc1cc(C)c(S(=O)(=O)N2CCCCC2COCC(=O)N2CCN(c3ccc(F)cc3)CC2)c(C)c1 (stereo not drawn) [Example 289, 1-(4-(4-fluorophenyl)piperazin-1-yl)-2-((1-(4-methoxy-2,6-dimethylphenylsulfonyl)piperidin-2-yl)methoxy)ethanone] | 103% | 95.5% |
| COc1ccc(N2CCN(C(=O)COCC3CCCCN3S(=O)(=O)c3c(C)cc(OC)cc3C)CC2)cc1 (stereo not drawn) [Example 290, 2-((1-(4-methoxy-2,6-dimethylphenylsulfonyl)piperidin-2-yl)methoxy)-1-(4-(4-methoxyphenyl)piperazin-1-yl)ethanone] | 104% | 92.9% |
| COc1cc(C)c(S(=O)(=O)N2CCCCC2COCC(=O)N2CCN(C(C)C)CC2)c(C)c1 (stereo not drawn) [Example 291, 1-(4-isopropylpiperazin-1-yl)-2-((1-(4-methoxy-2,6-dimethylphenylsulfonyl)piperidin-2-yl)methoxy)ethanone] | 104% | 93% |
| Cc1cc(C)c(S(=O)(=O)N2Cc3ccccc3CC2COCC(=O)N2CCC(N3CCN(C)CC3)CC2)c(C)c1 (stereo not drawn) [Example 292, 2-((2-(mesitylsulfonyl)-1,2,3,4-tetrahydroisoquinolin-3-yl)methoxy)-1-(4-(4-methylpiperazin-1-yl)piperidin-1-yl)ethanone] | 106% | 99.2% |
| O=C(COCC1CCCCN1S(=O)(=O)c1ccc(Cl)c(Cl)c1)Nc1cccc(CN2CCCC2)c1 (stereo not drawn) [Example 293, 2-((1-(3,4-dichlorophenylsulfonyl)piperidin-2-yl)methoxy)-N-(3-(pyrrolidin-1-ylmethyl)phenyl)acetamide] | 90.5% | -6.96% |
| CCN1CCN(C(=O)COCC2CCCN2S(=O)(=O)c2c(Cl)cc(Cl)cc2Cl)CC1 (stereo not drawn) [Example 295, 1-(4-ethylpiperazin-1-yl)-2-((1-(2,4,6-trichlorophenylsulfonyl)pyrrolidin-2-yl)methoxy)ethanone] | 96.7% | 103% |
| O=C(COCC1CCCN1S(=O)(=O)c1c(Cl)cc(Cl)cc1Cl)N1CCC(N2CCCC2)CC1 (stereo not drawn) [Example 296, 1-(4-(pyrrolidin-1-yl)piperidin-1-yl)-2-((1-(2,4,6-trichlorophenylsulfonyl)pyrrolidin-2-yl)methoxy)ethanone] | 106% | 99.3% |
